Assay results reported in patent US4526889A, “Epimeric azahomoerythromycin A derivative, intermediates and method of use” (Pfizer Inc., priority 1984, dated 1985).
Values after ≈ are worked out from the molar mass of the structure shown. Read-outs that look alike come from different tables or passages of the source.

What was measured:
Assay in all cases: MIC in brain heart infusion (BHI) broth
E. Coli 125 = assay type: cell-based; details: Escherichia coli, BHI broth, read-out: MIC
Source text: (§1) Generally twelve 2 fold dilutions of the test compound are employed, with initial concentration of the test drug being in the range of 50 to 200 mcg./ml. The susceptibility (MIC) of the test organism is accepted as the lowest concentration of compound capable of producing complete inhibition of growth as judged by the naked eye. A comparison of the activity of 4"-epi-9-deoxo-9a-methyl-9a-aza-9a-homoerythromycin A (IV) with that of an erythromycin A control is shown in replicate in the Table I.

E. Coli 129 = assay type: cell-based; details: Escherichia coli, BHI broth, read-out: MIC
Source text: as §1

E. Coli 266 = assay type: cell-based; details: Escherichia coli, BHI broth, read-out: MIC
Source text: as §1

E. Coli 470 = assay type: cell-based; details: Escherichia coli
Source text: as §1

Ent. aerog. 040 = assay type: cell-based
Source text: as §1

Ent. cloac. 009 = assay type: cell-based
Source text: as §1

Kleb. oxy. 024 = assay type: cell-based
Source text: as §1

Kleb. pn. 009 = assay type: cell-based
Source text: as §1

Kleb. pn. 031 = assay type: cell-based
Source text: as §1

Neiss. sic. 000 = assay type: cell-based
Source text: as §1

Past. mult. 001 = assay type: cell-based
Source text: as §1

Prov. strua. 013 = assay type: cell-based
Source text: as §1

Serr. mar. 017 = assay type: cell-based
Source text: as §1

Staph. aur. 005 = assay type: cell-based; details: BHI broth, read-out: MIC
Source text: as §1

Staph. aur. 052 = assay type: cell-based; details: BHI broth, read-out: MIC
Source text: as §1

Staph. aur. 400 = assay type: cell-based
Source text: as §1

Staph. epi 111 = assay type: cell-based
Source text: as §1

Strep. faec. 006 = assay type: cell-based; details: BHI broth, read-out: MIC
Source text: as §1

Strep. pneumo. 012 = assay type: cell-based
Source text: as §1

Strep. pyog. 203 = assay type: cell-based
Source text: as §1

H. influ. 012 = assay type: cell-based, Hemophilus influenzae; details: Haemophilus influenzae
Source text: as §1

H. influ. 036 = assay type: cell-based, Hemophilus influenzae; details: Haemophilus influenzae
Source text: as §1

H. influ. 038 = assay type: cell-based, Hemophilus influenzae; details: Haemophilus influenzae
Source text: as §1

H. influ. 042 = assay type: cell-based, Hemophilus influenzae; details: Haemophilus influenzae
Source text: as §1

H. influ. 051 = assay type: cell-based, Hemophilus influenzae; details: Haemophilus influenzae
Source text: as §1

H. influ. 073 = assay type: cell-based, Hemophilus influenzae; details: Haemophilus influenzae
Source text: as §1

H. influ. 078 = assay type: cell-based, Hemophilus influenzae; details: Haemophilus influenzae
Source text: as §1

H. influ. 081 = assay type: cell-based, Hemophilus influenzae; details: Haemophilus influenzae
Source text: as §1

CC[C@H]1OC(=O)[C@H](C)[C@@H](O[C@H]2C[C@@](C)(OC)[C@@H](O)[C@H](C)O2)[C@H](C)[C@@H](O[C@@H]2O[C@H](C)C[C@H](N(C)C)[C@H]2O)[C@](C)(O)C[C@@H](C)C(=O)[C@H](C)[C@@H](O)[C@]1(C)O [Erythromycin A]
MIC (E. Coli 125; 24 h, Day 1): > 50 µg/mL
MIC (E. Coli 125; 48 h, Day 2): > 50 µg/mL
MIC (E. Coli 129; 24 h, Day 1): > 50 µg/mL
MIC (E. Coli 129; 48 h, Day 2): > 50 µg/mL
MIC (E. Coli 266; 24 h, Day 1): > 50 µg/mL
MIC (E. Coli 266; 48 h, Day 2): > 50 µg/mL
MIC (E. Coli 470; 24 h): 3.12 µg/mL (≈ 4.25 µM)
MIC (E. Coli 470; 48 h): 3.12 µg/mL (≈ 4.25 µM)
MIC (Ent. aerog. 040; 24 h, Day 1): > 50 µg/mL
MIC (Ent. aerog. 040; 48 h, Day 2): > 50 µg/mL
MIC (Ent. cloac. 009; 24 h, Day 1): > 50 µg/mL
MIC (Ent. cloac. 009; 48 h, Day 2): > 50 µg/mL
MIC (Kleb. oxy. 024; 24 h, Day 1): > 50 µg/mL
MIC (Kleb. oxy. 024; 48 h, Day 2): > 50 µg/mL
MIC (Kleb. pn. 009; 24 h, Day 1): > 50 µg/mL
MIC (Kleb. pn. 009; 48 h, Day 2): > 50 µg/mL
MIC (Kleb. pn. 031; 24 h, Day 1): > 50 µg/mL
MIC (Kleb. pn. 031; 48 h, Day 2): > 50 µg/mL
MIC (Neiss. sic. 000; 24 h): 1.56 µg/mL (≈ 2.13 µM)
MIC (Neiss. sic. 000; 48 h): 3.12 µg/mL (≈ 4.25 µM)
MIC (Past. mult. 001; 24 h): 1.56 µg/mL (≈ 2.13 µM)
MIC (Past. mult. 001; 48 h): 1.56 µg/mL (≈ 2.13 µM)
MIC (Prov. strua. 013; 24 h, Day 1): > 50 µg/mL
MIC (Prov. strua. 013; 48 h, Day 2): > 50 µg/mL
MIC (Serr. mar. 017; 24 h, Day 1): > 50 µg/mL
MIC (Serr. mar. 017; 48 h, Day 2): > 50 µg/mL
MIC (Staph. aur. 005; 24 h, Day 1): 0.05 µg/mL (≈ 0.0681 µM)
MIC (Staph. aur. 005; 48 h, Day 2): 0.05 µg/mL (≈ 0.0681 µM)
MIC (Staph. aur. 052; 24 h, Day 1): 0.1 µg/mL (≈ 0.136 µM)
MIC (Staph. aur. 052; 48 h, Day 2): 0.1 µg/mL (≈ 0.136 µM)
MIC (Staph. aur. 400; 24 h): 3.12 µg/mL (≈ 4.25 µM)
MIC (Staph. aur. 400; 48 h): 6.25 µg/mL (≈ 8.52 µM)
MIC (Staph. epi 111; 24 h, Day 1): 0.05 µg/mL (≈ 0.0681 µM)
MIC (Staph. epi 111; 48 h, Day 2): 0.05 µg/mL (≈ 0.0681 µM)
MIC (Strep. faec. 006; 24 h, Day 1): 0.78 µg/mL (≈ 1.06 µM)
MIC (Strep. faec. 006; 48 h, Day 2): 0.78 µg/mL (≈ 1.06 µM)
MIC (Strep. pneumo. 012; 24 h, Day 1): 0.025 µg/mL (≈ 0.0341 µM)
MIC (Strep. pneumo. 012; 48 h, Day 2): 0.025 µg/mL (≈ 0.0341 µM)
MIC (Strep. pyog. 203; 24 h, Day 1): 0.025 µg/mL (≈ 0.0341 µM)
MIC (Strep. pyog. 203; 48 h, Day 2): 0.025 µg/mL (≈ 0.0341 µM)
MIC (H. influ. 012; 24 h, Day 1): 3.12 µg/mL (≈ 4.25 µM)
MIC (H. influ. 012; 48 h, Day 2): 1.56 µg/mL (≈ 2.13 µM)
MIC (H. influ. 036; 24 h, Day 1): 6.25 µg/mL (≈ 8.52 µM)
MIC (H. influ. 036; 48 h, Day 2): 3.12 µg/mL (≈ 4.25 µM)
MIC (H. influ. 038; 24 h): 6.25 µg/mL (≈ 8.52 µM)
MIC (H. influ. 038; 48 h): 3.12 µg/mL (≈ 4.25 µM)
MIC (H. influ. 042; 24 h, Day 1): 1.56 µg/mL (≈ 2.13 µM)
MIC (H. influ. 042; 48 h, Day 2): 1.56 µg/mL (≈ 2.13 µM)
MIC (H. influ. 051; 24 h): 3.12 µg/mL (≈ 4.25 µM)
MIC (H. influ. 051; 48 h): 3.12 µg/mL (≈ 4.25 µM)
MIC (H. influ. 073; 24 h): 3.12 µg/mL (≈ 4.25 µM)
MIC (H. influ. 073; 48 h): 3.12 µg/mL (≈ 4.25 µM)
MIC (H. influ. 078; 24 h, Day 1): 1.56 µg/mL (≈ 2.13 µM)
MIC (H. influ. 078; 48 h, Day 2): 1.56 µg/mL (≈ 2.13 µM)
MIC (H. influ. 081; 24 h): 3.12 µg/mL (≈ 4.25 µM)
MIC (H. influ. 081; 48 h): 3.12 µg/mL (≈ 4.25 µM)
